Experimental data as given in US20080292619A1, “Pharmaceutical Composition Containing Meltrin Antagonist” (MOCHIDA PHARMACEUTICAL CO., LTD., priority 2004, published 2008).
In the oligonucleotide strings, read from the 5' end, every base follows the letter of its sugar. An asterisk marks phosphorothioate; unmarked linkages are phosphodiester. Other units and linkages are bracketed, terminal groups are in braces. A string of capitals states the bases alone. d = 2'-deoxy (DNA)

What follows are substances tested on human preadipocyte (assay: Effect of antisense compound on adipocyte proliferation and differentiation (Adipo Red)). Conditions: 300 nM; human preadipocyte.
Type: cell-based
Protocol: First, human preadipocyte (Human Preadipocytes-sq POIETICS #PT-5020, Sanko Junyaku Co., Ltd.) was suspended in growth medium (#PT-8200, Sanko Junyaku Co., Ltd.), and after adding the suspension to a 96 well culture plate at 1×10^4 cells/well/100 μL, the cells were cultured overnight at 37° C. in the presence of 5% CO2.
The preadipocyte was cultured overnight, and after washing the preadipocyte twice with serum-free DMEM, Opti-MEM was added at 80 μL/well.
Gene transfection reagent Lipofectin was diluted with Opti-MEM to 20 μg/mL, and the dilution was allowed to stand at room temperature for 30 minutes. Next, the antisense oligodeoxynucleotide synthesized as described above was heated at 90° C. for 3 minutes, and after quenching on ice, diluted with Opti-MEM to a concentration 10 times higher than the final concentration. Equal amounts of the Lipofectin in Opti-MEM and the antisense oligodeoxynucleotide in Opti-MEM were mixed, and the mixture was incubated at room temperature for 15 minutes and added to 96 well plate at 20 μL/well. After incubating at 37° C. for 4 hours in the presence of 5% CO2, it was used for examination as described below.
The differentiation medium was prepared by using growth medium (#PT-8200, Sanko Junyaku Co., Ltd.) and supplement kit (PGM Single Quots, #PT-9500, Sanko Junyaku Co., Ltd.) according to the instruction of the kit. Next, the culture supernatant containing the Lipofectin was removed from the 96 well plate prepared in the above (2), and the plate was washed twice with serum-free DMEM, and the differentiation medium prepared as described above was added at 100 μL/well. The plate was then incubated at 37° C. for 5 days to 15 days in the presence of 5% CO2.
Accumulation of the neutral fat in the adipocyte was determined by fluorometry using Adipo Red stain.
After taking the 96 well plate out of the CO2 incubator, the plate was allowed to stand until it reached room temperature. The plate was centrifuged at 300 g (1200 rpm) for 10 minutes at room temperature to remove the medium. Next, after gently washing with PBS (SIGMA) at 200 μL/well, PBS was added to the well at 200 μL/well. Next, Adipo Red Assay Reagent (Adipo Red, Cat. #PT-7009, Lot.3F0497, A Cambrex Company) was added at 5 μL/well, and the plate was allowed to stand at room temperature for at least 10 minutes to thereby stain the neutral fat accumulated in the adipocyte. The fat accumulation was determined by measuring fluorescence intensity in a fluorometer at an excitation wavelength of 485 nm and an emission wavelength of 535 nm.
The suppression rate of the adipocyte differentiation was calculated by converting the fluorescence intensity of the well transfected with the antisense compound in relation to the fluorescence intensity of the well without transfection with the antisense compound which was assumed as 100%. The result was rated “+” when the suppression rate was at least 25%, “++” when the suppression rate was at least 50%, and “+++” when the suppression rate was at least 75%.

Row | Substance | Supression of adipose differentiation 300 nM
1 | 5 (dG*dT*dT*dT*dG*dG*dC*dT*dT*dA*dC*dA*dG*dG*dT*dC*dC*dC*dC*dT) [compound 5] | ++ (“++” when the suppression rate was at least 50%)

Same assay, conditions: human adipocyte differentiation

Row | Substance | Score (suppressing the human adipocyte differentiation)
2 | H005: tgcgtcgcgcgcgcgccgtt (TGCGTCGCGCGCGCGCCGTT; antisense; DNA, all phosphorothioate, methylation of C not given here) | ++ (“++” when the suppression rate was at least 50%)
3 | H130: tgacagggttggaagccacg (TGACAGGGTTGGAAGCCACG; antisense; DNA, all phosphorothioate, methylation of C not given here) | +++ (“+++” when the suppression rate was at least 75%)
4 | H131: caaggtggccgaggtgagcc (CAAGGTGGCCGAGGTGAGCC; antisense; DNA, all phosphorothioate, methylation of C not given here) | +++ (“+++” when the suppression rate was at least 75%)
5 | H133 + 2: tcggtgggtaggaatctggc (TCGGTGGGTAGGAATCTGGC; antisense; DNA, all phosphorothioate, methylation of C not given here) | + (“+” when the suppression rate was at least 25%)
6 | H135 + 15: gggtctgctgatgtcaacat (GGGTCTGCTGATGTCAACAT; antisense; DNA, all phosphorothioate, methylation of C not given here) | + (“+” when the suppression rate was at least 25%)
7 | H136 + 19: ctgagggacattcaggccgt (CTGAGGGACATTCAGGCCGT; antisense; DNA, all phosphorothioate, methylation of C not given here) | + (“+” when the suppression rate was at least 25%)
8 | H139 + 14: taggtgcacgtggggcccgg (TAGGTGCACGTGGGGCCCGG; antisense; DNA, all phosphorothioate, methylation of C not given here) | ++ (“++” when the suppression rate was at least 50%)
9 | H143 + 15: gcttctgaggggggtttggc (GCTTCTGAGGGGGGTTTGGC; antisense; DNA, all phosphorothioate, methylation of C not given here) | ++ (“++” when the suppression rate was at least 50%)
10 | H144 + 18: ggccagaggatctgcaggca (GGCCAGAGGATCTGCAGGCA; antisense; DNA, all phosphorothioate, methylation of C not given here) | ++ (“++” when the suppression rate was at least 50%)
11 | H151: gtgtgggtggatctgggcac (dG*dT*dG*dT*dG*dG*dG*dT*dG*dG*dA*dT*dC*dT*dG*dG*dG*dC*dA*dC) | ++ (“++” when the suppression rate was at least 50%)

What follows are substances tested on human meltrin α RNA (assay: Suppression of human meltrin α expression by antisense compound in RD cell (real time PCR)). Conditions: 50 nM; RD cell.
Type: cell-based
In short: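 RD cells transfected with heat-denatured antisense oligodeoxynucleotide plus Lipofectin in Opti-MEM for 4 h at 37° C, then cultured 18 h. Meltrin α RNA quantified by TaqMan RT-PCR against plasmid standard curve, GAPDH-corrected; suppression vs untreated cells, rated +/++/+++ for ≥30/50/70%.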

Row | Substance | Supression of expression, 50 nM
12 | 5 (dG*dT*dT*dT*dG*dG*dC*dT*dT*dA*dC*dA*dG*dG*dT*dC*dC*dC*dC*dT) [compound 5] | ++ (“++” when the suppression rate was at least 50%)

Same assay, conditions: 50 nM; RD cell; corrected by GAPDH

Row | Substance | suppression rate of expression, 50 nM
13 | H005: tgcgtcgcgcgcgcgccgtt (TGCGTCGCGCGCGCGCCGTT; antisense; DNA, all phosphorothioate, methylation of C not given here) | ++ (“++” when the suppression rate was at least 50%)
14 | H130: tgacagggttggaagccacg (TGACAGGGTTGGAAGCCACG; antisense; DNA, all phosphorothioate, methylation of C not given here) | ++ (“++” when the suppression rate was at least 50%)
15 | H131: caaggtggccgaggtgagcc (CAAGGTGGCCGAGGTGAGCC; antisense; DNA, all phosphorothioate, methylation of C not given here) | ++ (“++” when the suppression rate was at least 50%)
16 | H133 + 2: tcggtgggtaggaatctggc (TCGGTGGGTAGGAATCTGGC; antisense; DNA, all phosphorothioate, methylation of C not given here) | ++ (“++” when the suppression rate was at least 50%)
17 | H136 + 19: ctgagggacattcaggccgt (CTGAGGGACATTCAGGCCGT; antisense; DNA, all phosphorothioate, methylation of C not given here) | +++ (“+++” when the suppression rate was at least 70%)
18 | H139 + 14: taggtgcacgtggggcccgg (TAGGTGCACGTGGGGCCCGG; antisense; DNA, all phosphorothioate, methylation of C not given here) | ++ (“++” when the suppression rate was at least 50%)
19 | H143 + 15: gcttctgaggggggtttggc (GCTTCTGAGGGGGGTTTGGC; antisense; DNA, all phosphorothioate, methylation of C not given here) | +++ (“+++” when the suppression rate was at least 70%)
20 | H144 + 18: ggccagaggatctgcaggca (GGCCAGAGGATCTGCAGGCA; antisense; DNA, all phosphorothioate, methylation of C not given here) | +++ (“+++” when the suppression rate was at least 70%)
21 | H151: gtgtgggtggatctgggcac (dG*dT*dG*dT*dG*dG*dG*dT*dG*dG*dA*dT*dC*dT*dG*dG*dG*dC*dA*dC) | ++ (“++” when the suppression rate was at least 50%)

Same assay, conditions: 200 nM; RD cell; corrected by GAPDH

Row | Substance | suppression rate of expression, 200 nM
22 | H005: tgcgtcgcgcgcgcgccgtt (TGCGTCGCGCGCGCGCCGTT; antisense; DNA, all phosphorothioate, methylation of C not given here) | ++ (“++” when the suppression rate was at least 50%)
23 | H130: tgacagggttggaagccacg (TGACAGGGTTGGAAGCCACG; antisense; DNA, all phosphorothioate, methylation of C not given here) | +++ (“+++” when the suppression rate was at least 70%)
24 | H131: caaggtggccgaggtgagcc (CAAGGTGGCCGAGGTGAGCC; antisense; DNA, all phosphorothioate, methylation of C not given here) | +++ (“+++” when the suppression rate was at least 70%)
25 | H151: gtgtgggtggatctgggcac (dG*dT*dG*dT*dG*dG*dG*dT*dG*dG*dA*dT*dC*dT*dG*dG*dG*dC*dA*dC) | +++ (“+++” when the suppression rate was at least 70%)
26 | H225: aagacagaggcatcatggca (dA*dA*dG*dA*dC*dA*dG*dA*dG*dG*dC*dA*dT*dC*dA*dT*dG*dG*dC*dA; antisense) | +++ (“+++” when the suppression rate was at least 70%)
27 | H229: aaagaaggctttctcataaa (dA*dA*dA*dG*dA*dA*dG*dG*dC*dT*dT*dT*dC*dT*dC*dA*dT*dA*dA*dA; antisense) | + (“+” when the suppression rate was at least 30%)
28 | H230: taggaaaactgttgacccca (dT*dA*dG*dG*dA*dA*dA*dA*dC*dT*dG*dT*dT*dG*dA*dC*dC*dC*dC*dA; antisense) | ++ (“++” when the suppression rate was at least 50%)
29 | H233: agttttgttttctggaaggc (DNA dA*dG*dT*dT*dT*dT*dG*dT*dT*dT*dT*dC*dT*dG*dG*dA*dA*dG*dG*dC; antisense) | + (“+” when the suppression rate was at least 30%)
30 | H234: acaccgggaaagtgaaatgc (DNA dA*dC*dA*dC*dC*dG*dG*dG*dA*dA*dA*dG*dT*dG*dA*dA*dA*dT*dG*dC; antisense) | ++ (“++” when the suppression rate was at least 50%)
31 | H235: ttgcctagatacagtgggga (DNA dT*dT*dG*dC*dC*dT*dA*dG*dA*dT*dA*dC*dA*dG*dT*dG*dG*dG*dG*dA; antisense) | ++ (“++” when the suppression rate was at least 50%)
32 | H237: gtgtcacgtgtttagtttat (DNA dG*dT*dG*dT*dC*dA*dC*dG*dT*dG*dT*dT*dT*dA*dG*dT*dT*dT*dA*dT; antisense) | + (“+” when the suppression rate was at least 30%)
33 | H239: ttggaatgtattagagctgg (DNA dT*dT*dG*dG*dA*dA*dT*dG*dT*dA*dT*dT*dA*dG*dA*dG*dC*dT*dG*dG; antisense) | + (“+” when the suppression rate was at least 30%)
34 | H240: acagatgcatgctatacgag (DNA dA*dC*dA*dG*dA*dT*dG*dC*dA*dT*dG*dC*dT*dA*dT*dA*dC*dG*dA*dG; antisense) | ++ (“++” when the suppression rate was at least 50%)
35 | H243: cagcagtattattttccagc (DNA dC*dA*dG*dC*dA*dG*dT*dA*dT*dT*dA*dT*dT*dT*dT*dC*dC*dA*dG*dC; antisense) | + (“+” when the suppression rate was at least 30%)
36 | H247: aacctttttaatagtatata (DNA dA*dA*dC*dC*dT*dT*dT*dT*dT*dA*dA*dT*dA*dG*dT*dA*dT*dA*dT*dA; antisense) | + (“+” when the suppression rate was at least 30%)
37 | H249: aaaaagacaatgcccacgta (DNA dA*dA*dA*dA*dA*dG*dA*dC*dA*dA*dT*dG*dC*dC*dC*dA*dC*dG*dT*dA; antisense) | ++ (“++” when the suppression rate was at least 50%)
38 | H250: atctaaggatttgggcatct (DNA dA*dT*dC*dT*dA*dA*dG*dG*dA*dT*dT*dT*dG*dG*dG*dC*dA*dT*dC*dT; antisense) | + (“+” when the suppression rate was at least 30%)
39 | H251: aggaagggctaacatgccag (DNA dA*dG*dG*dA*dA*dG*dG*dG*dC*dT*dA*dA*dC*dA*dT*dG*dC*dC*dA*dG; antisense) | +++ (“+++” when the suppression rate was at least 70%)

Same assay, conditions: 2′-methoxy modified form compared to the phosphorothioate form

Row | Substance | RNase H-dependent activity of suppressing the meltrin α expression
40 | H130: tgacagggttggaagccacg (TGACAGGGTTGGAAGCCACG; antisense; DNA, all phosphorothioate, methylation of C not given here) | reduced activity of suppressing the meltrin α expression
41 | H131: caaggtggccgaggtgagcc (CAAGGTGGCCGAGGTGAGCC; antisense; DNA, all phosphorothioate, methylation of C not given here) | reduced activity of suppressing the meltrin α expression
42 | H144 + 18: ggccagaggatctgcaggca (GGCCAGAGGATCTGCAGGCA; antisense; DNA, all phosphorothioate, methylation of C not given here) | reduced activity of suppressing the meltrin α expression
43 | H151: gtgtgggtggatctgggcac (dG*dT*dG*dT*dG*dG*dG*dT*dG*dG*dA*dT*dC*dT*dG*dG*dG*dC*dA*dC) | reduced activity of suppressing the meltrin α expression
